Assay results published in patent publication US9249115B2, “N,N1 substituted piperazines having combined antiaggregant, anticoagulant and vasodilatory activity, and method for producing same” (Vertex Closed Joint Stock Company, priority 2011, dated 2016).

Key:
[1] = system: experimental photothrombosis; assay: Experimental photothrombosis model, arterial blood velocity; assay type: in vivo, Wistar male rats
Procedure: The studies were done on Wistar male rats with mass of 230±30 g (laboratory animals nursery “Rappolovo”, RAMS). The animals were kept with unlimited food (standard ration for laboratory rats K-120 by <<Inform-korm>>, Russia) and water allowance. […]
Thrombosis modeling: the drugs were introduced into left femoral vein, in 50 min afterwards 1 ml of Bengal rose A photosensitizer (Acros Organics, USA) solution was introduced with dose of 17 mg/kg [Boselli 2007, Petrischev 2009]. Then the incision of internal surface of animal right thigh about 2 cm in length was made. The section of the femoral vein about 5 mm in length was released from surrounding tissues and separated from neurovascular bundle. Beneath this section of the vein the black non-transparent plastic strip 3 mm in width was laid to screen off the vein and surrounding tissues from radiation. The irradiation was done using diode laser <<DPSS-laser>> (Diode Pumped Solid State Laser, South Korea) with 532 nm wavelength and 60 mW power. The area of irradiation was 1 mm^2, exposing time was 40 min. The blood flow in femoral artery was measured by high frequency Doppler ultrasonography method (<<Minimax-Doppler-K>> apparatus, frequency of sensor was 20 MHz). The blood velocity alteration due to irradiation was measured (Table 9).

[2] = system: mesentery arterioles; assay: Vasodilator properties, microcirculatory vessel responsiveness to noradrenalin, arterioles; assay type: in vivo, Wistar male rats
Procedure: (§1) Vasodilator properties of N,N′-substituted piperazines were evaluated according to their influence on microcirculatory vessel responsiveness.
(§2) The studies were done on Wistar male rats with mass of 300±30 g (laboratory animals nursery “Rappolovo”, RAMS). The animals were kept with unlimited food (standard ration for laboratory rats K-120 by <<Inform-korm>>, Russia) and water allowance.
(§3) The solutions of N,N′-substituted piperazines and physiological (control) solution were introduced via bolus injection within 1 min into caudal vein of non-anaesthetized animals according to the dosage of 5.0 ml per 1 kg. Immediately after the introduction the animals were put in separate standard cages for observation.
(§4) In 30 min after the injection the animals were anaesthetized (thiopental sodium, 60 mg/kg intraperitoneally). The loop of small intestine adjoined to mesoappendix was retrieved through inferomedian incision. To study microcirculation in mesentery venules and arterioles in transmitted light the rat was placed on thermostated microscope objective table. The application of noradrenalin solution (Aguettant, 2 mg/ml, Laboratoire AGUETTANT, France) was done directly on the mesentery (Furness J. B., Marshall J. M., 1974; Yantareva L. I., 2004).
(§5) The study of microcirculatory vessels was done with LUMAM I1 microscope (LOMO, Russia). The recording of video data was done with the camera (Optics and Electronics ISTA Ltd) attached to a personal computer. The processing of data was done with Video-Test 4.0 software (ISTA Ltd., Russia). The diameter of the vessel wall (D, m) before and after the application of noradrenalin and the starting time of blood flow slowdown induced by noradrenalin were measured (the measurements were done for 1 min after the application).

[3] = system: mesentery venules; assay: Vasodilator properties, microcirculatory vessel responsiveness to noradrenalin, venules; assay type: in vivo, Wistar male rats
Procedure: as §1, §2, §3, §4, §5

[4] = in vivo; cited from earlier work
[5] = 0.01 mmol/kg, noradrenalin 10^−6 g/ml
[6] = 0.025 mmol/kg, noradrenalin 10^−7 g/ml

SMILES	V, cm/s (arterial blood velocity) ([1]; 0.01 mmol/kg, 0 min of irradiation) [cm/s]	V, cm/s (arterial blood velocity) ([1]; 0.01 mmol/kg, 10 min of irradiation) [cm/s]	V, cm/s (arterial blood velocity) ([1]; 0.01 mmol/kg, 20 min of irradiation) [cm/s]	V, cm/s (arterial blood velocity) ([1]; 0.01 mmol/kg, 30 min of irradiation) [cm/s]	V, cm/s (arterial blood velocity) ([1]; 0.01 mmol/kg, 40 min of irradiation) [cm/s]	V, cm/s (arterial blood velocity) ([1]; 0.025 mmol/kg, 0 min of irradiation) [cm/s]	V, cm/s (arterial blood velocity) ([1]; 0.025 mmol/kg, 10 min of irradiation) [cm/s]	V, cm/s (arterial blood velocity) ([1]; 0.025 mmol/kg, 20 min of irradiation) [cm/s]	V, cm/s (arterial blood velocity) ([1]; 0.025 mmol/kg, 30 min of irradiation) [cm/s]	V, cm/s (arterial blood velocity) ([1]; 0.025 mmol/kg, 40 min of irradiation) [cm/s]	% of vessel constriction [2, 5] [%]	Blood flow slowdown, Latent period of slowdown [2, 5] [s]	% of vessel constriction [2, 6] [%]	% of vessel constriction [3, 5] [%]	Blood flow slowdown, Latent period of slowdown [3, 5] [s]	% of vessel constriction [3, 6] [%]	dermal reactions that lead to treatment cessation [4]	gastrointestinal reactions that lead to treatment cessation [4]
COc1ccc(CN2CCN(CC(CS(=O)(=O)[O-])OS(=O)(=O)[O-])CC2)c(OC)c1OC.[Na+].[Na+] (stereo not drawn) [Example 14, 2-sulfooxy-3-(4-((2,3,4-trimethoxyphenyl)-methyl)piperazine-1-yl)propane-1-sulfonic acid disodium salt monohydrate]	6.9 ± 3.2	7.00 ± 2.0	6.8 ± 2.0	6.9 ± 1.3	6.6 ± 1.4	8.3 ± 1.8	8.1 ± 1.3	8.3 ± 2.0	8.0 ± 1.3	8.2 ± 1.2	58	43 ± 4	28	33	41 ± 6	22	–	–
Clc1ccccc1CN1CCc2sccc2C1 [ticlopidine]	–	–	–	–	–	–	–	–	–	–	–	–	–	–	–	–	4-15%	up to 20%
